The text below walks through data of paper PMC4039107, “Spores of Clostridium engineered for clinical efficacy and safety cause regression and cure of tumors in vivo” (Oncotarget, 2014).

Usually Km stands for the substrate concentration at which the rate is half of its maximum.

Holding throughout (assay type): biochemical
The target of one assay is T1, HsoNTR (Histophilus somni, UniProt A0A9Q6YZG6).
T1 construct: gene JFL49_05940
Nature of the assay: HPLC CB1954 nitroreductase assay. The text has this: HPLC CB1954 nitroreductase assay on HsoNTR

Another assay has as its target T2, NmeNTR (Neisseria meningitidis, UniProt Q9K022).
T2 construct: gene NMB0804
Briefly: HPLC CB1954 nitroreductase assay. The text has this:
HPLC CB1954 nitroreductase assay on NmeNTR

The target in the next assay is T3, NfnB (Escherichia coli, UniProt P38489).
T3 construct: gene nfsB; untagged as far as told; expressed from fdx promoter at pyrE locus of C. sporogenes strain E1; cell lysate
T3 sequence (P38489 1-217): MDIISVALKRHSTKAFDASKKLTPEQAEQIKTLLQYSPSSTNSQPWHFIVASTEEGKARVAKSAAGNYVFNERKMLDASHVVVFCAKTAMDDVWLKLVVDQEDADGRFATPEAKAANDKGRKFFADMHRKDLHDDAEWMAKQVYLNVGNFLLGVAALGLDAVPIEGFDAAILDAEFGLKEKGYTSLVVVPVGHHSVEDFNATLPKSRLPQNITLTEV
Nature of the assay: menadione reductase activity of C. sporogenes E1 lysate. The settings on record: background of endogenous quinone reductases in wild type and pyrE mutant controls.

Setting [1] is: kcat is with NADH as co-substrate, read-out: Km ^CB1954.
The mark [2] stands for this setting: co-substrate CB1954, read-out: Km ^NADH.

Like-named read-outs stand apart in the source and are kept apart here.

T1 sequence (A0A9Q6YZG6 entry or part of it): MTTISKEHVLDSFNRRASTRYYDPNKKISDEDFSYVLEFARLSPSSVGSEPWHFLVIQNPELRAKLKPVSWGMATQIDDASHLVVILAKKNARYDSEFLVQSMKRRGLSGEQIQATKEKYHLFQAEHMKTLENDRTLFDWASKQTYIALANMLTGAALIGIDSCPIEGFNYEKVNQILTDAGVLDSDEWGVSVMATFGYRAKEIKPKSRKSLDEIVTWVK
T2 sequence (Q9K022 entry or part of it): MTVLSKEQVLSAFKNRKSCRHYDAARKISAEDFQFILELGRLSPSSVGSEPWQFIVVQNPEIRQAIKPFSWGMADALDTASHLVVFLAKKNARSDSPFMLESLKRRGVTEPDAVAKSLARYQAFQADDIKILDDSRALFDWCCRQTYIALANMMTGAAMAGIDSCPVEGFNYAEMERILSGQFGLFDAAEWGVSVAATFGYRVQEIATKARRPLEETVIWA

For the molecule `NC(=O)c1cc(N2CC2)c([N+](=O)[O-])cc1[N+](=O)[O-]` [CB1954, 5-(aziridin-1-yl)-2,4-dinitrobenzamide], the values for the Km on HsoNTR (setting [1]) and at NmeNTR (setting [1]) were 22 µM and 2.47 µM, respectively.

For `NC(=O)C1=CN([C@@H]2O[C@H](COP(=O)(O)OP(=O)(O)OC[C@H]3O[C@@H](n4cnc5c(N)ncnc54)[C@H](O)[C@@H]3O)[C@@H](O)[C@H]2O)C=CC1` [NADH], the Km on HsoNTR (setting [2]) amounted to 644 µM; at NmeNTR (setting [2]), 188 µM.

For `CC1=CC(=O)c2ccccc2C1=O` [menadione], at NfnB, the “specific menadione reductase activity” value is “both E1 and N1 contained menadione reductase activity elevated significantly above the endogenous levels”.
